Experiments:
ROCK2 = ROCK2 (Homo sapiens, UniProt O75116); assay: Invitrogen Z-Lyte FRET kinase assay, […] peptide substrate; format: biochemical
ROCK1 = ROCK1 (Homo sapiens, UniProt Q13464); assay: as above; format: biochemical
Chain of ROCK1 (Q13464 2-1354): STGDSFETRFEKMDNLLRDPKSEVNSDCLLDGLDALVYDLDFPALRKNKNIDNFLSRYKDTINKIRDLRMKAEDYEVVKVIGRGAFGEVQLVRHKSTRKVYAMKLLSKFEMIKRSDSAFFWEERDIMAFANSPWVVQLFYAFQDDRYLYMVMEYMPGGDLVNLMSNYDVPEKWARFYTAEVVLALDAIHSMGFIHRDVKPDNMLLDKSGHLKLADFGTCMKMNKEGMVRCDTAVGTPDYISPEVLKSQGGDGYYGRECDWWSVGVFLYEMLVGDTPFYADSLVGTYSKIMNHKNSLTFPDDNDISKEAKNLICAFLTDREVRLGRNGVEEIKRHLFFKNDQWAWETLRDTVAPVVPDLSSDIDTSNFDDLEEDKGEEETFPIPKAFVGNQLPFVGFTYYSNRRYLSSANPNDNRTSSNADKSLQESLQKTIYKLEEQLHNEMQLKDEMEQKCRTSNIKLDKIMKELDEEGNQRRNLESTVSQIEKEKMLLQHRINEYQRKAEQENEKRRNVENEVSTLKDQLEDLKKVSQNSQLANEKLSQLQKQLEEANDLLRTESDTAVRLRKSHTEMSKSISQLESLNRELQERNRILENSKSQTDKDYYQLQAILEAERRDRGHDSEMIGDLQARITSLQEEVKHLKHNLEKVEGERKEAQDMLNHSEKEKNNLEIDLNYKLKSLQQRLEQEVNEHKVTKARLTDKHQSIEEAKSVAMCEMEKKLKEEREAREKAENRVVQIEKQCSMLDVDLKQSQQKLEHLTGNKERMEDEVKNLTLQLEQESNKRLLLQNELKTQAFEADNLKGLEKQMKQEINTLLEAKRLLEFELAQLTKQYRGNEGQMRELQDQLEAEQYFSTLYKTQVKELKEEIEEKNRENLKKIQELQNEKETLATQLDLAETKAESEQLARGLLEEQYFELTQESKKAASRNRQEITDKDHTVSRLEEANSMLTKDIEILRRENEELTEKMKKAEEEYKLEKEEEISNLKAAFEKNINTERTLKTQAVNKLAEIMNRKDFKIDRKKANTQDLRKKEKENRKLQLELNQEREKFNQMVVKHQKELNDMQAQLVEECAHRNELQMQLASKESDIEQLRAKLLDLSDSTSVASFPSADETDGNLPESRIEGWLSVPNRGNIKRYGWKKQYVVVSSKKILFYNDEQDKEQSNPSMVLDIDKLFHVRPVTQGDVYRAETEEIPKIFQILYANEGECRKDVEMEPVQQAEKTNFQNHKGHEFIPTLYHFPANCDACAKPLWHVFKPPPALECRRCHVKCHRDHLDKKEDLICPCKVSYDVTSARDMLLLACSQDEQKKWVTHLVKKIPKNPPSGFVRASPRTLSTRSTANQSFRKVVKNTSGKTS

Chain of ROCK2 (O75116 whole entry): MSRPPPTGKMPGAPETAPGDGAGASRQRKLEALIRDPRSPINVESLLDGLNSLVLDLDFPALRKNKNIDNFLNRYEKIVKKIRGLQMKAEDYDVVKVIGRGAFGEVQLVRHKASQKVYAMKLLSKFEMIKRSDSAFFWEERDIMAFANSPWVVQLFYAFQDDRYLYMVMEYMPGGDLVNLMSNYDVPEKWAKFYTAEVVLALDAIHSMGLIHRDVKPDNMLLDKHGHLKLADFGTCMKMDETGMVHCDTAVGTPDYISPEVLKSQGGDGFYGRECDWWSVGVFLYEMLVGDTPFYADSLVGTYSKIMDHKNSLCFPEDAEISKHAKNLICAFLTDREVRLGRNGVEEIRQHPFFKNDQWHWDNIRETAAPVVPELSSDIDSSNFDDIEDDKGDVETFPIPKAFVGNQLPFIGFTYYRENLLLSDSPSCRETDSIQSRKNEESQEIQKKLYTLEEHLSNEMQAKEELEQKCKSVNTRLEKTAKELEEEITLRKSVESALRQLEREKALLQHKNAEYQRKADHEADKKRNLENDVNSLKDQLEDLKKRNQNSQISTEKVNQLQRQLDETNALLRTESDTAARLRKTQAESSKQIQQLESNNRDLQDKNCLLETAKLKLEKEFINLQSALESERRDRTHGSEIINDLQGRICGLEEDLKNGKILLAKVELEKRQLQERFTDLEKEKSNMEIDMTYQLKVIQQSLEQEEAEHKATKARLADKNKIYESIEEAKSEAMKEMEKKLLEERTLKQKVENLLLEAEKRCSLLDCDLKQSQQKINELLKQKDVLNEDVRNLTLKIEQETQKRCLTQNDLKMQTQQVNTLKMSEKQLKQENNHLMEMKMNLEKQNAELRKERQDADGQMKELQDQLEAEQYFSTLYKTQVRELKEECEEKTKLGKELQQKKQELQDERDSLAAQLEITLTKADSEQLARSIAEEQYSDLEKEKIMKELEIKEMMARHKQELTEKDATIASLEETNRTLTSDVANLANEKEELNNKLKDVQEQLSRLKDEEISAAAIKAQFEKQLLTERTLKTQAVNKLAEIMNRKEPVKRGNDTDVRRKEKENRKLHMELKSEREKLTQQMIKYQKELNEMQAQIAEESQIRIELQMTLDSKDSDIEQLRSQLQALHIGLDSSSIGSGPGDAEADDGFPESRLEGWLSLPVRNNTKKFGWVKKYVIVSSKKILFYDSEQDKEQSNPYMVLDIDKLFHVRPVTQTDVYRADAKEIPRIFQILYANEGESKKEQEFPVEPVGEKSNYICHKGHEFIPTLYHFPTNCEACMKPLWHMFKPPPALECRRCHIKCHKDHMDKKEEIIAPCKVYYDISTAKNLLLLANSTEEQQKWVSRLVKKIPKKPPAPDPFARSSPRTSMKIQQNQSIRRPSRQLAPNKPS

## RKI-1313
ROCK2
  IC50: 8 µM
ROCK1
  IC50: 34 µM

Source: paper PMC3463757 (2012)
